Data taken from patent US7838023B2, “Furoxan compounds, compositions and methods of use” (NitroMed, Inc., priority 2005, dated 2010).
Counter-ions that a name gives are not always drawn. Like-named read-outs stand apart in the source and are kept apart here.

Experiments:
[1] = test system: Human coronary artery endothelial cells (EC); assay: Endothelial cell (EC) antiproliferation assay; assay type: cell-based; settings: inhibition of proliferation, viable cell count ~68 hours after addition
Experimental: (§1) Human coronary artery smooth muscle cells (SMC) and endothelial cells (EC) were supplied by Cambrex Bio Science Walkersville, Inc. (Walkersville, MD). The smooth muscle cells were maintained in a basal medium, EBM (Cambrex Bio Science Walkersville, Inc), without phenol red and supplemented with 5% (v/v) fetal bovine serum (FBS), human recombinant epidermal growth factor (EGF), human recombinant fibroblast growth factor (FGF), bovine insulin, 50 μg/mL gentamicin sulfate, and 50 ng/mL amphotericin B (all obtained from Cambrex Bio Science Walkersville, Inc. as SMGM2 SingleQuots). The endothelial cells were grown in a modified EGM2-MV medium (Cambrex Bio Science Walkersville, Inc.), which had the same, phenol red-free, basal medium, EBM, as used in the smooth muscle cell medium, but were supplemented with 5% (v/v) fetal bovine serum (FBS), human recombinant epidermal growth factor (EGF), human recombinant fibroblast growth factor (FGF), vascular endothelial growth factor (VEGF), recombinant insulin-like growth factor-1 (IGF-1), ascorbic acid, 50 μg/mL gentamicin sulfate, and 50 ng/mL amphotericin B (all supplied by Cambrex Bio Science Walkersville, Inc. as EGM2-MV SingleQuots). All cells were incubated under humidified 95% air-5% CO2 at 37° C.
(§2) For the SMC/EC Antiproliferation Assay, the cells were seeded at 4×10^4 viable cells in 2 mL of the appropriate medium per well of a Corning tissue culture 24 well plate (Corning, N.Y.). Stock solutions of the test compounds were prepared just prior to addition to the cells by dissolving in DMSO at a concentration 1000 times the highest concentration to be assayed. This stock solution was diluted, as required, with DMSO to the required concentration. On the same day the cells were seeded, but after they had attached and spread out (about 3 hr), each test compound in varying concentrations (2 μL of the diluted stock solutions) was added to four replicate wells (n=4) for each concentration. Control cultures received 2 μL of DMSO per well (n=4). On the following morning, the cultures were examined microscopically and their condition, including evidence of cytotoxicity, recorded. ˜68 hours after the addition of the test compound, the cultures were examined microscopically and the viable cells counted with a hemacytometer following trypsinization with 0.25% trypsin-1 mM EDTA. Trypan Blue dye exclusion was used to discriminate between viable and dead cells. The results are presented as % of the control viable cell count (mean±SEM) and are used to determine the IC50 for the inhibition of proliferation of vascular smooth muscle and endothelial cells.

[2] = test system: Human coronary artery smooth muscle cells (SMC); assay: Vascular smooth muscle cell (SMC) antiproliferation assay; assay type: cell-based; settings: inhibition of proliferation, viable cell count ~68 hours after addition
Experimental: as §1, §2

[3] = Homo sapiens, Endothelial cell, EC strain 3033, read-out: EC Strain 3033, IC50
[4] = Homo sapiens, SMC strain 3033, read-out: SMC Strain 3033, IC50

O=S(=O)(c1ccccc1)c1c(OCCN(CCOc2no[n+]([O-])c2S(=O)(=O)c2ccccc2)CCOc2no[n+]([O-])c2S(=O)(=O)c2ccccc2)no[n+]1[O-] [Example 1d, Ethanamine, 2-[[5-oxido-4-(phenylsulfonyl)-1,2,5-oxadiazol-3-yl]oxy]-N,N-bis[2-[[5-oxido-4-(phenylsulfonyl)-1,2,5-oxadiazol-3-yl]oxy]ethyl]-, 2-hydroxy-1,2,3-propanetricarboxylate]
IC50 [1, 3]: 447 nM
IC50 ([1]; Homo sapiens, Endothelial cell, EC strain 5675-1, read-out: EC Strain 5675-1, IC50): 460 nM
IC50 [2, 4]: 6 nM
IC50 ([2]; Homo sapiens, SMC strain 5286, read-out: SMC Strain 5286, IC50): 17 nM
IC50 ([2]; Homo sapiens, SMC strain 9557-1, read-out: SMC Strain 9557-1, IC50): 8 nM

O=S(=O)(c1ccccc1)c1c(OCCNCCOc2no[n+]([O-])c2S(=O)(=O)c2ccccc2)no[n+]1[O-] [Example 2b, Ethanamine, 2-[[5-oxido-4-(phenylsulfonyl)-1,2,5-oxadiazol-3-yl]oxy]-N-[2-[[5-oxido-4-(phenylsulfonyl)-1,2,5-oxadiazol-3-yl]oxy]ethyl]-, 2-hydroxy-1,2,3-propanetricarboxylate (1:1) (salt)]
IC50 [1, 3]: 690 nM
IC50 [2, 4]: 71 nM

O=S(=O)(c1ccccc1)c1c(OCC(COc2no[n+]([O-])c2S(=O)(=O)c2ccccc2)Oc2no[n+]([O-])c2S(=O)(=O)c2ccccc2)no[n+]1[O-] [Example 4]
IC50 ([1]; EC strain 3033, read-out: EC Strain 3033, IC50): 346 nM
IC50 ([2]; SMC strain 5286, read-out: SMC Strain 5286, IC50): 13 nM
IC50 ([2]; SMC strain 9557-1, read-out: SMC Strain 9557-1, IC50): 9 nM

O=S(=O)(c1ccccc1)c1c(OCCOc2no[n+]([O-])c2S(=O)(=O)c2ccccc2)no[n+]1[O-] [Example 5]
melting point: 187 to 189 °C
